Patent US20140051650A1, “VAGINAL COMPOSITIONS BASED ON ALKYL POLYGLUCOSIDES” (EFFIK S.A., priority 2011, published 2014)

How the values were obtained:
Format in all cases: cell-based
Streptococcus agalactiae = assay: Minimum Bactericidal Concentration (MBC) in liquid medium against Streptococcus agalactiae; settings: substance alone
Method: Three Streptococcus agalactiae strains isolated from vaginal-rectal buffers during the prenatal check-ups were used for the assay. The strains were named “strain 2”, “strain 10” and “strain 11”. Isolation was carried out on a blood agar medium and identification was obtained through biochemical tests of the API 20 Strep (Bio-Mérieux) system and through the identification of the Lancefield group.
The experiments were also carried out on a Streptococcus agalactiae ATCC 12386 strain.
“Brain Heart Infusion broth” (BHIb, Becton Dickinson) medium was used for the Streptococcus agalactiae culture, “Mueller-Hinton broth” (M-Hb) medium after adding 2% “laked” horse blood and the “Mueller-Hinton agar” (M-Ha) medium with addition of defibrinated horse blood at 5% (Oxoid) were used for the antimicrobial activity assays.
The Streptococcus agalactiae strains were cultured in BHIb broth for 24 hours at 37° C. Immediately before the assay, the bacterial suspensions were diluted up to obtaining turbidity equivalent to 0.5 McFarland standard. 50 μl of a further 1:100 dilution in broth+blood at 2% were distributed in the wells of the microtitre plates. The presumed titre of the inoculum carried out through this procedure is of about 5×10^4 ufc (units forming colony)/well.
The bacterial cultures were also diluted serially according to a value 10 (up to a dilution value equivalent to 10^−7) and an aliquot of 0.1 ml of each dilution was double streaked on M-Ha +blood 5% for determining the actual titre to be used, subsequently, to determine the MBC (Minimum Bactericidal Concentration).
The assay was carried out in 96-well microtitre plates. 50 μl of M-Hb at normal concentration were deposited in the first well of each of the 5 rows. Starting from the first well of each row, […] volumes were transferred from each well to the subsequent one 10 times, thus obtaining a series of dilutions after doubling. The 12th well of each row was kept substance-free as a positive control of the bacterial growth.
Subsequently, 50 μl of bacterial inoculum of M-Hb+double concentration blood (4%) were deposited in all wells of the plate, except for the 11th of each row. Only M-Hb+double concentration blood but bacteria-free, were deposited in the 11th well, with the aim of providing negative control for each row. The described scheme was used for the assay of each of the three Streptococcus agalactiae strains.
(§1) Immediately after determining the value of the MIC for each substance, a volume equivalent to 50 μl was taken from each well and streaked on the surface of plates containing the solid medium. The plates were subsequently incubated at the conditions indicated for each microbial strain. After incubation at 37° C. for 24 hours, the number of colonies grown on the medium surface was counted thus determining the number of bacteria that survived after 24 hours of contact with the substance at the concentration present in the well. The MBC value defined as the lowest concentration of each substance capable of reducing the bacterial load by 99.9% in the previously defined assay conditions was determined through comparison between the number of bacteria that survived in each well and that of the bacterial inoculum deposited initially.

[1] = system: Gardnerella vaginalis ATCC 14018; assay: MIC against Gardnerella vaginalis; settings: substance alone
Method: (§2) The Gardnerella vaginalis ATCC 14018 strain, the Neisseria gonorrhoeae ATCC 43069 strain and the Candida albicans ATCC 10231 strain were also used for the experiment.
(§3) The other assayed microbial strains were cultured in the liquid media and in the incubation conditions specified in table A, following the operating procedure described above.
(§4) The assay was carried out in 96-well microtitre plates. 50 μl of substance solution at the “mother” concentration alongside 50 μl of liquid medium at double concentration were deposited in the first well of each of the 8 rows while 50 μl of liquid medium at normal concentration were deposited in the remaining 11 wells. Starting from the first well of each row, 50 μl volumes were transferred from each well to the subsequent one 10 times, thus obtaining a series of 11 dilutions after doubling. The 12th well of each row was kept substance-free as a function of positive control of the bacterial growth.
(§5) Subsequently, 50 μl of diluted bacterial inoculum as specified previously were deposited in all wells of the plate, except for the 11th of each row. Only the liquid medium at single concentration but bacteria-free, was deposited in the 11th well, with the aim of providing negative control for each row. The described scheme was used for the assay with each of the assayed microbial strains. […]

[2] = system: Gardnerella vaginalis ATCC 14018; assay: MBC against Gardnerella vaginalis; settings: substance alone
Method: as §1, with “The Gardnerella vaginalis ATCC 14018 strain, the Neisseria gonorrhoeae ATCC 43069 strain and the Candida albicans ATCC 10231 strain were also used for the experiment. [table] The other assayed microbial strains were cultured in the liquid media and in the incubation conditions specified in table A, following the operating procedure described above. Immediately” for “Immediately”

[3] = system: Neisseria gonorrhoeae ATCC 43069; assay: MIC against Neisseria gonorrhoeae; settings: substance alone
Method: as §2, §3, §4, §5

[4] = system: Neisseria gonorrhoeae ATCC 43069; assay: MBC against Neisseria gonorrhoeae; settings: substance alone
Method: as §1, with “The Gardnerella vaginalis ATCC 14018 strain, the Neisseria gonorrhoeae ATCC 43069 strain and the Candida albicans ATCC 10231 strain were also used for the experiment. [table] The other assayed microbial strains were cultured in the liquid media and in the incubation conditions specified in table A, following the operating procedure described above. Immediately” for “Immediately”

[5] = system: Candida albicans ATCC 10231; assay: MIC against Candida albicans; settings: substance alone
Method: as §2, §3, §4
Subsequently, 50 μl of diluted bacterial inoculum as specified previously were deposited in all wells of the plate, except for the 11th of each row. Only the liquid medium at single concentration but bacteria-free, was deposited in the 11th well, with the aim of providing negative control for each row. The described scheme was used for the assay with each of the assayed microbial strains.
After incubation at the conditions indicated regarding each micro-organism, the microtitre plates were examined to verify, in each well, the presence or absence of bacterial growth. The minimum inhibitory concentration is defined as the lowest concentration of the substance still capable of inhibiting bacterial growth i.e. preventing the liquid from becoming turbid within the well.

[6] = system: Candida albicans ATCC 10231; assay: MBC against Candida albicans; settings: substance alone
Method: as §1, with “The Gardnerella vaginalis ATCC 14018 strain, the Neisseria gonorrhoeae ATCC 43069 strain and the Candida albicans ATCC 10231 strain were also used for the experiment. [table] The other assayed microbial strains were cultured in the liquid media and in the incubation conditions specified in table A, following the operating procedure described above. Immediately” for “Immediately”

vaginal lactobacilli = assay: Activity on vaginal lactobacilli compared with the pathogen strains; settings: lactobacilli versus G. vaginalis
Method: as §1, with “By comparison, the lactobacillus strains dominating in the physiological colonization of the vaginal mucosa typical in healthy women were also tested. Thus, such explorative activity was carried out on such strains with the aim of evaluating a selectivity of the compounds of the invention with respect to the pathogenic microorganisms with respect to the lactobacillus bacterial flora. Immediately” for “Immediately”

With “caprylyl/capryl glucoside/C8-C10 alkyl polyglucoside [Substance A1]” the MBC (Streptococcus agalactiae; ATCC 12386 in M-Hb blood 2%) was 0.097, the MBC (Streptococcus agalactiae; Strain 2 in M-Hb blood 2%) was 0.097 and the MBC (Streptococcus agalactiae; Strain 10 in M-Hb blood 2%) was 0.194. For the same substance, the MBC (Streptococcus agalactiae; Strain 11 in M-Hb blood 2%) was 0.097.

“lauryl glucoside/C12-C16 alkyl polyglucoside [Substance A2]” was tested, and the MBC (Streptococcus agalactiae; ATCC 12386 in M-Hb blood 2%) was 0.0097, the MBC (Streptococcus agalactiae; Strain 2 in M-Hb blood 2%) was 0.0097 and the MBC (Streptococcus agalactiae; Strain 10 in M-Hb blood 2%) was 0.019. It also gave an MBC (Streptococcus agalactiae; Strain 11 in M-Hb blood 2%) of 0.0097, an MIC [1] of 0.0048% and an MBC [2] of 0.0048%. The MIC [3] was “≦0.0012%”, the MBC [4] was “≦0.0012%” and the MIC [5] was 0.077%. The MBC [6] was 0.154% and the “MBC values in vaginal lactobacilli, times higher than those observed in G. vaginalis” value (vaginal lactobacilli) was “about 15 times”.
